# How the values were obtained:
# [1] = target: Voltage-gated inwardly rectifying potassium channel KCNH2 (Homo sapiens, UniProt Q12809); assay type: functional
# [2] = target: T1, Adenosine receptor A3 (Homo sapiens, UniProt P0DMS8)
# T1 sequence (P0DMS8 whole entry): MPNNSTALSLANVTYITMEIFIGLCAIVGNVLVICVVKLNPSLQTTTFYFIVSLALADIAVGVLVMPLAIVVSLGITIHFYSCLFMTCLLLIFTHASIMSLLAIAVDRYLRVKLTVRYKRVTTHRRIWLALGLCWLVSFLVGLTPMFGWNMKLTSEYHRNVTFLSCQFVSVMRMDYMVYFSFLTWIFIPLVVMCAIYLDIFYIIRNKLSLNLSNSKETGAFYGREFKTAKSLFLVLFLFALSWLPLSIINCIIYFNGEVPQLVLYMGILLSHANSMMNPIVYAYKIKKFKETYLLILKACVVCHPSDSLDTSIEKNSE
# [3] = target: Voltage-dependent L-type calcium channel subunit alpha-1C (Rattus norvegicus, UniProt P22002); assay type: functional
# [4] = target: Muscarinic acetylcholine receptor M3 (Homo sapiens, UniProt P20309)
# [5] = target: Neuronal acetylcholine receptor subunit alpha-4 (Homo sapiens, UniProt P43681)
# Neuronal acetylcholine receptor subunit alpha-4, sequence (P43681 whole entry): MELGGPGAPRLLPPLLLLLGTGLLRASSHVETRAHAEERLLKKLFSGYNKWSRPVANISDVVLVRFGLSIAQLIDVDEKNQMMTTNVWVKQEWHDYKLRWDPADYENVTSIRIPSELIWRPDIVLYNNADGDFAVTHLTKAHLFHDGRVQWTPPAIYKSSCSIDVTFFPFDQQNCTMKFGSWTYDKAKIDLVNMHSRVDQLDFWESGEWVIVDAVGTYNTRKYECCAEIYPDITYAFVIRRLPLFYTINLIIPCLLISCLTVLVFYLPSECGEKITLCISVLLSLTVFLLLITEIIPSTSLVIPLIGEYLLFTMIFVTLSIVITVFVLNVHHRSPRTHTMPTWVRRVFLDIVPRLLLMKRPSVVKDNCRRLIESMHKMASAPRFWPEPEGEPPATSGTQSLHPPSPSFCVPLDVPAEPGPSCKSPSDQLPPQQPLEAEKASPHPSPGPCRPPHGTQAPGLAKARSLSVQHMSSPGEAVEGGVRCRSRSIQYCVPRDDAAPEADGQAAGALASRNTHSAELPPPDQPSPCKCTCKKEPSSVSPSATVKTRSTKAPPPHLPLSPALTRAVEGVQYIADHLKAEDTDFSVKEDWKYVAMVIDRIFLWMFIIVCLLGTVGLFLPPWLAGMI
# [6] = target: Gamma-aminobutyric acid receptor subunit alpha-1 (Rattus norvegicus, UniProt P62813); assay type: functional
# Gamma-aminobutyric acid receptor subunit alpha-1, sequence (P62813 whole entry): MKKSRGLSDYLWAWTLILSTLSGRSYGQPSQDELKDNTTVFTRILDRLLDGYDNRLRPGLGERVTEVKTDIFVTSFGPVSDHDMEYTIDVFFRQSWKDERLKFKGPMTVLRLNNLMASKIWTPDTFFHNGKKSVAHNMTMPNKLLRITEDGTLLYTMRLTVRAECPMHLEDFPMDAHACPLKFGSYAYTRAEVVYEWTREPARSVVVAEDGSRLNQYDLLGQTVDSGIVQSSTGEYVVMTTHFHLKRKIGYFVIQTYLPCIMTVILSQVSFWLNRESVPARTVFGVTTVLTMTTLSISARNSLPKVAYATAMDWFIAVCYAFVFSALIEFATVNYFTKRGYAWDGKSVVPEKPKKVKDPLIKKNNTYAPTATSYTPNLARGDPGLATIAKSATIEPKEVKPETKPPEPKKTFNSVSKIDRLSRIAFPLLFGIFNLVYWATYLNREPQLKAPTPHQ
# [7] = target: T2, 5-hydroxytryptamine receptor 1A (Homo sapiens, UniProt P08908); assay type: functional, cell-based
# T2 sequence (P08908 whole entry): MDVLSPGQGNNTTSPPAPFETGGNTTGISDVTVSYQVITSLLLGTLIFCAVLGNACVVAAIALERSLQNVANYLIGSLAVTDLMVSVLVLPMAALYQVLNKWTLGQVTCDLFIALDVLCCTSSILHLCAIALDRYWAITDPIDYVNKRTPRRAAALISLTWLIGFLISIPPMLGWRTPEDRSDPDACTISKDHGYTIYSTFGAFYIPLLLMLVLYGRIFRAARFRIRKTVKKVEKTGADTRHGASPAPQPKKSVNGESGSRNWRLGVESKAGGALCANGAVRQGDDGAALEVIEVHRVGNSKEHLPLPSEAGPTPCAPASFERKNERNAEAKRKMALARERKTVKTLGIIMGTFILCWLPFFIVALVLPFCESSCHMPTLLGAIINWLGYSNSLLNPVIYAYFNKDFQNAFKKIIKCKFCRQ
# [8] = target: Kappa-type opioid receptor (Homo sapiens, UniProt P41145)
# Kappa-type opioid receptor, sequence (P41145 whole entry): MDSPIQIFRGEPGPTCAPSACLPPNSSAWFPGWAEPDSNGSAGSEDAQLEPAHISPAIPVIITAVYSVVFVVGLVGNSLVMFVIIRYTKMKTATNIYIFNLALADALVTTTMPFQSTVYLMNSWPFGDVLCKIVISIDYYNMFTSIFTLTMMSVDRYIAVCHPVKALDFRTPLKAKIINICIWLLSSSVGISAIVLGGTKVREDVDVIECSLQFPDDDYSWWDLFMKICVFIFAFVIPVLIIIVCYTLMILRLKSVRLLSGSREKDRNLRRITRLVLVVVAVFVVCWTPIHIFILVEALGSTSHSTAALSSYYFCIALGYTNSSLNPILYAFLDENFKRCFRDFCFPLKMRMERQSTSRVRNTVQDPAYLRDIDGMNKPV
# [9] = target: 3',5'-cyclic-AMP phosphodiesterase 4D (Homo sapiens, UniProt Q08499); assay type: functional
# 3',5'-cyclic-AMP phosphodiesterase 4D, sequence (Q08499 whole entry): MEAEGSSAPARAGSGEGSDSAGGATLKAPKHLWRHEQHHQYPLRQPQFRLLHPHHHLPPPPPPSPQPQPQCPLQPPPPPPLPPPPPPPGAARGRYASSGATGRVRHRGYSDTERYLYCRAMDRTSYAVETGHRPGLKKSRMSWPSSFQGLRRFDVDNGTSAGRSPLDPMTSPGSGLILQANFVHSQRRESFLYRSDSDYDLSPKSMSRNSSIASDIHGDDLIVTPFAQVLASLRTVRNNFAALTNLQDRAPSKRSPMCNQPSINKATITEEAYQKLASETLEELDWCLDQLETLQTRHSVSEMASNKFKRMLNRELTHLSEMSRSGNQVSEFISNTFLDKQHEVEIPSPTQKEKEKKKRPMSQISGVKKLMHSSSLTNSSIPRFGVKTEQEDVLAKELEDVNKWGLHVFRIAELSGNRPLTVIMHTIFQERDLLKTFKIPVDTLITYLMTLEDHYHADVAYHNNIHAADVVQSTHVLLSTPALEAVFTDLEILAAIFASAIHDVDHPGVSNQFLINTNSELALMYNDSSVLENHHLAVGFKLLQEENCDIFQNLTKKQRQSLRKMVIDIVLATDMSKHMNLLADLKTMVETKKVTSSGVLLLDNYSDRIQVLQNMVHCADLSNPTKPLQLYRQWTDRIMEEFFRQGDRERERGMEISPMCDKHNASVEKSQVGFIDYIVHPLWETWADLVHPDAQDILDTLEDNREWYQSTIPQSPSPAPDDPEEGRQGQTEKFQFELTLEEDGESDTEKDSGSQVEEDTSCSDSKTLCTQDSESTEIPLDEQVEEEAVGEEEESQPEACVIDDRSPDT
# [10] = target: T3, Progesterone receptor (Homo sapiens, UniProt P06401); assay type: functional
# T3 sequence (P06401 whole entry): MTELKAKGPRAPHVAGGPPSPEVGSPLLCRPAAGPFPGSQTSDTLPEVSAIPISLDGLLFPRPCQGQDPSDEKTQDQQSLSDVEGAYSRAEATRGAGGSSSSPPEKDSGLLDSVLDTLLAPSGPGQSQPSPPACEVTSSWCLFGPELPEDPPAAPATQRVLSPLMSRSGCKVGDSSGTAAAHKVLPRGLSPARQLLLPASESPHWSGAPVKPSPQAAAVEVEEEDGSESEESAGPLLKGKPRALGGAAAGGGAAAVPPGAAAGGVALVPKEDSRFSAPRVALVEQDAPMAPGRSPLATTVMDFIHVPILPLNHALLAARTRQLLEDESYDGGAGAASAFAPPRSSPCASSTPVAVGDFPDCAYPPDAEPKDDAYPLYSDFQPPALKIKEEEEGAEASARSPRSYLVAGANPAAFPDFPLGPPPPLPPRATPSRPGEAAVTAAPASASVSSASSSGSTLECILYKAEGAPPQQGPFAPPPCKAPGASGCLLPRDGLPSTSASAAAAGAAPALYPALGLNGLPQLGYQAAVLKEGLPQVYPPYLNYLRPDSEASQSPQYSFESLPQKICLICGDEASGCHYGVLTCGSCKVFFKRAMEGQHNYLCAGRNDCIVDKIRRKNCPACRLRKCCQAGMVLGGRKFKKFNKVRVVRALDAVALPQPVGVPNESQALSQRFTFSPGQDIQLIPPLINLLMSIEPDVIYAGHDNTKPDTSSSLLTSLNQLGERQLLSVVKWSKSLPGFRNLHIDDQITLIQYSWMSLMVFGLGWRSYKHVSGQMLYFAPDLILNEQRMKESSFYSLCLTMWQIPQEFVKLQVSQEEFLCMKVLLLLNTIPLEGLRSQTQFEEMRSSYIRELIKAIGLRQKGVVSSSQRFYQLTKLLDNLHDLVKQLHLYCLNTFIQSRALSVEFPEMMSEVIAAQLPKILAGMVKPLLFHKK
# [11] = target: cGMP-inhibited 3',5'-cyclic phosphodiesterase 3A (Homo sapiens, UniProt Q14432); assay type: functional
# cGMP-inhibited 3',5'-cyclic phosphodiesterase 3A, sequence (Q14432 whole entry): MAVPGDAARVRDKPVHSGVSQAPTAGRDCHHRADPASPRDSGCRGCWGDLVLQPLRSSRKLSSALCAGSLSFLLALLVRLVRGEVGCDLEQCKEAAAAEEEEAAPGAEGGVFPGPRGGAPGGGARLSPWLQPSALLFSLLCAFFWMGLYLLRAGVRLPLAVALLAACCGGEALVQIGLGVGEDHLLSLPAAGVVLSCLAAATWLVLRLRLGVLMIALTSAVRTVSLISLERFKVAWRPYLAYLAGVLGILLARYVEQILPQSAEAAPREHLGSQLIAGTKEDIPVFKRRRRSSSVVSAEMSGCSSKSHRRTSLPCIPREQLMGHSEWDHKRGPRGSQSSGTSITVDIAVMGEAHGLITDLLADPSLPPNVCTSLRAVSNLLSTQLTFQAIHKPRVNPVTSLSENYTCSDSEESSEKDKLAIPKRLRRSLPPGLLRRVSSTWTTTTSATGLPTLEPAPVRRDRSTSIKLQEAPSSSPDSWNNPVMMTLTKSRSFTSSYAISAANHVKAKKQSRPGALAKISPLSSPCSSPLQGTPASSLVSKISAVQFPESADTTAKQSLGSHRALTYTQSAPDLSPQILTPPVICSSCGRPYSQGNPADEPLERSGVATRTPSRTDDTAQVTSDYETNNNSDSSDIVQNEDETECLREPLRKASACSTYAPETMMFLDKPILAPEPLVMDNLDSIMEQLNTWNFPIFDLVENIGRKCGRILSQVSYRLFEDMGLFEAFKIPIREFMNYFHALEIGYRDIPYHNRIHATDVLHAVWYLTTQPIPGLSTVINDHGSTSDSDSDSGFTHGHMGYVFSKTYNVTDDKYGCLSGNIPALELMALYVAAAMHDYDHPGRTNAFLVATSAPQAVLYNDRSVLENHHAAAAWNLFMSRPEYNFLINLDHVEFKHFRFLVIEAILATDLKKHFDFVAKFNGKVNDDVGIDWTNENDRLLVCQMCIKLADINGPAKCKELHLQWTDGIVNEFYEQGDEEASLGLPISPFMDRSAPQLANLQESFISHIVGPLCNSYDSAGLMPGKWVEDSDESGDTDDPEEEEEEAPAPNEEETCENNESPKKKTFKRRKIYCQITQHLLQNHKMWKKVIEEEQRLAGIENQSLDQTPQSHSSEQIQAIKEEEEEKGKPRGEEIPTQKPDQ
# [12] = target: T4, Alpha-1A adrenergic receptor (Homo sapiens, UniProt P35348); assay type: functional, cell-based
# T4 sequence (P35348 whole entry): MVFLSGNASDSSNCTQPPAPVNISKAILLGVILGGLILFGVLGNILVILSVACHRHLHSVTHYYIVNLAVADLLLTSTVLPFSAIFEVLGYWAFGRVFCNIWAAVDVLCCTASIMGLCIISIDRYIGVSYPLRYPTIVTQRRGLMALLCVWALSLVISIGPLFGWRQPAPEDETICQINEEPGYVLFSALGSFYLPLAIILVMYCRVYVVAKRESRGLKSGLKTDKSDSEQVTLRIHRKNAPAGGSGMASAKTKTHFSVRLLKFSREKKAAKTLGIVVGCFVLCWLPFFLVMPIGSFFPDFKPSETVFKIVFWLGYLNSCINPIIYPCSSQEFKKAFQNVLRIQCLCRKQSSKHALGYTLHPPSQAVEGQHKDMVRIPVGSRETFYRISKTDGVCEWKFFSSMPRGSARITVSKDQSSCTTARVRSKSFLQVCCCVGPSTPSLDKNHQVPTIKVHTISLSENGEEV
# [13] = target: Mu-type opioid receptor (Homo sapiens, UniProt P35372); experiment: biochemical; assay type: functional
# Mu-type opioid receptor, sequence (P35372 whole entry): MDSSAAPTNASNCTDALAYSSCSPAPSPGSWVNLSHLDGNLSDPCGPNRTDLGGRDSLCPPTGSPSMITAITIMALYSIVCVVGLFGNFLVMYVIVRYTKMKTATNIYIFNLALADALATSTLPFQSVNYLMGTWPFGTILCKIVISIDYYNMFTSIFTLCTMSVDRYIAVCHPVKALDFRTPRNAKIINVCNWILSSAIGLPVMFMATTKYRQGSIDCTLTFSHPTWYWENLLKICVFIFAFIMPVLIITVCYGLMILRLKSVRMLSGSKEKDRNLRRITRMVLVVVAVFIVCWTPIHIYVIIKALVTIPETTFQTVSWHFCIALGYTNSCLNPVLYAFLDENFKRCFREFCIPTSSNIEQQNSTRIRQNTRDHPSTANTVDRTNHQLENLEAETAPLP
# Note: assay procedure not described here.
# Voltage-gated inwardly rectifying potassium channel KCNH2, sequence (Q12809 whole entry): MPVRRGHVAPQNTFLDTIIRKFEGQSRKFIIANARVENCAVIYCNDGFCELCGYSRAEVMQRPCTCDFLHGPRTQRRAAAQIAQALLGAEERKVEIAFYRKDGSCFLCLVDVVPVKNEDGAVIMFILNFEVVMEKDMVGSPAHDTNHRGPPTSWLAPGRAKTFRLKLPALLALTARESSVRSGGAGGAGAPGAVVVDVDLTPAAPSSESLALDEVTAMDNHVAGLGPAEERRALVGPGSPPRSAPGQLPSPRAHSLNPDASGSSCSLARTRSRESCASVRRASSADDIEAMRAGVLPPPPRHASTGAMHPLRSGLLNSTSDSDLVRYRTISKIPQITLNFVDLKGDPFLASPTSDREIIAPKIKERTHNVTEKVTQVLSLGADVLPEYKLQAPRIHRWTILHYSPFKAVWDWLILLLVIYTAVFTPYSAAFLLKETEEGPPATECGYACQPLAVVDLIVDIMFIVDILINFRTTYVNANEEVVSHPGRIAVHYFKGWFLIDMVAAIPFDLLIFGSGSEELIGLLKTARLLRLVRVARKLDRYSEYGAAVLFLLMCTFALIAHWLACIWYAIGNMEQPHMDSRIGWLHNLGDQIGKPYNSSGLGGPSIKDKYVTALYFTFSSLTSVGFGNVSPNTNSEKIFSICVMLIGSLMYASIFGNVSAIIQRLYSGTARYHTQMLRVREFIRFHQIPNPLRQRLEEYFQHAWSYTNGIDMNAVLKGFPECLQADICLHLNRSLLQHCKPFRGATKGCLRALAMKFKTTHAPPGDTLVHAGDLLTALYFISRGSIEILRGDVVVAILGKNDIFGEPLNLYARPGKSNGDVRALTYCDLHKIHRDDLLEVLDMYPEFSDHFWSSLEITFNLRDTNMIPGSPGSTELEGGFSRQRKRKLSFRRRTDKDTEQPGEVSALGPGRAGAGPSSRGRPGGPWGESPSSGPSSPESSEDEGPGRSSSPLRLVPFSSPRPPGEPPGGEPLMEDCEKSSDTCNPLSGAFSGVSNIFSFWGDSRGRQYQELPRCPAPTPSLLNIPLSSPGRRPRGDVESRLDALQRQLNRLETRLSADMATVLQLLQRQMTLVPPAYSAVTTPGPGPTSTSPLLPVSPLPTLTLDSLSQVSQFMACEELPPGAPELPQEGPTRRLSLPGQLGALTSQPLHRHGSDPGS
Compound,AC50 [1] [µM],AC50 [2] [µM],AC50 [3] [µM],AC50 [4] [µM],AC50 [5] [µM],AC50 [6] [µM],AC50 [7] [µM],AC50 [8] [µM],AC50 [9] [µM],AC50 [10] [µM],AC50 [11] [µM],AC50 [12] [µM],AC50 [13] [µM]
"O=C(O)CCCCC1CCSS1 (stereo not drawn) [LIPOIC ACID, ALPHA]",> 30,,,,,,,,,,,,
OCc1cc(C(O)CNCCCCCCOCCCCc2ccccc2)ccc1O (stereo not given) [SALMETEROL],8.1,> 30,> 10,> 30,> 10,> 10,5.4,11,> 30,> 30,> 30,,
Nc1c2ccccc2nc2ccccc12 [AMINACRINE],12,,,,,,,,,,,,
Nc1cc(-c2ccncc2)c[nH]c1=O [INAMRINONE],> 30,> 30,> 10,,> 10,> 10,> 10,> 10,,,,> 30,
COc1cc2c(cc1OC)C(CCc1ccc(Cl)cc1)N(C)CC2 (stereo not given) [METHOPHOLINE],,> 30,> 10,> 30,> 30,> 10,> 10,1.2,> 30,> 30,> 30,,
CN(C(=O)c1c(O)c2ccccc2n(C)c1=O)c1ccccc1 [ROQUINIMEX],,> 30,,,> 30,,,,> 30,> 30,> 30,> 30,
Cc1ncc2n1-c1ccc(Cl)cc1C(c1ccccc1F)=NC2 [MIDAZOLAM],> 30,> 30,> 10,> 30,> 10,0.0025,> 30,,10,,> 30,> 30,
CC(=O)[C@]1(O)Cc2c(O)c3c(c(O)c2[C@@H](O[C@H]2C[C@H](N)[C@H](O)[C@H](C)O2)C1)C(=O)c1ccccc1C3=O [IDARUBICIN],20.7,20,> 30,,> 30,> 30,,,> 30,5.8,> 30,,> 30
Oc1ccc2c(c1)[C@@]13CCCC[C@@]1(O)[C@@H](C2)N(CC1CCC1)CC3 [BUTORPHANOL],12,> 30,,> 30,> 30,> 30,> 30,0.025,> 30,> 30,> 30,> 30,
O=C(O)CCNC(=O)c1ccccc1 [BETAMIPRON],> 30,> 30,> 30,,> 30,> 30,> 30,> 30,> 30,> 30,> 30,> 30,> 30
C/C(=C\C(=O)OCCCCCCCCC(=O)O)C[C@@H]1OC[C@H](C[C@@H]2O[C@H]2[C@@H](C)[C@H](C)O)[C@@H](O)[C@H]1O [MUPIROCIN],> 30,> 10,> 10,> 30,> 10,> 10,> 10,> 10,> 30,> 10,> 30,,
CC(=O)OCC(=O)[C@@]1(O)[C@H](C)C[C@H]2[C@@H]3CCC4=CC(=O)C=C[C@]4(C)[C@@]3(F)[C@@H](O)C[C@@]21C [DEXAMETHASONE ACETATE],> 30,> 30,> 10,> 30,> 10,> 10,> 10,> 10,> 30,,> 30,> 30,
NC1CCN(c2nc3c(cc2F)c(=O)c(C(=O)O)cn3-c2ccc(F)cc2F)C1 (stereo not given) [TOSUFLOXACIN],> 30,> 30,> 30,,> 30,> 30,> 30,> 30,> 30,> 30,> 30,> 30,> 30
Cn1c(=O)cc(N2CCC[C@@H](N)C2)n(Cc2ccccc2C#N)c1=O [ALOGLIPTIN],,> 30,> 10,,> 10,> 10,,8.32,> 30,,> 30,,
COc1cc2ncnc(Nc3ccc(F)c(Cl)c3)c2cc1NC(=O)/C=C/CN1CCCCC1 [DACOMITINIB ANHYDROUS],,21,,,> 30,,,,25,> 30,> 30,> 30,
Cn1cnc2c(F)c(Nc3ccc(Br)cc3Cl)c(C(=O)NOCCO)cc21 [SELUMETINIB],> 30,> 30,,,> 10,,,,> 30,,> 30,,
NC(=O)CN1CCCC1=O,> 30,> 30,,,> 30,> 30,> 30,> 30,> 30,> 30,> 30,> 30,> 30
O=C1CN=C(c2ccccn2)c2cc(Br)ccc2N1 [BROMAZEPAM],> 30,> 10,> 10,> 30,> 10,0.11,> 10,> 10,> 30,> 10,> 30,,
O=C1CN=C(c2ccccc2)c2cc([N+](=O)[O-])ccc2N1 [NITRAZEPAM],> 30,> 10,> 10,,> 10,0.022,> 10,> 10,30,> 10,> 30,,> 30
CCN(CC)CCN1C(=O)CN=C(c2ccccc2F)c2cc(Cl)ccc21 [FLURAZEPAM],0.896,> 30,> 10,> 30,> 10,0.0512,> 30,0.21,> 30,,> 30,> 30,

# Reference: ChEMBL document CHEMBL5291721, “A preclinical secondary pharmacology resource illuminates target-adverse drug reaction associations of marketed drugs” (Nat Commun, 2023)
